Experimental data reported in the CombiSolv-Exp solvation set (Vermeire and Green 2021).

Experiment: solvent given as SMILES

CCCCCCCOC(=O)c1ccccc1C(=O)OCCCCCC
Details | solvation free energy, 298 K [kcal/mol]
in O | -6.67

C1=CCCCC1
Details | solvation free energy, 298 K [kcal/mol]
in C1CCC2CCCCC2C1 | -4.21
in C1CCC(C2CCCCC2)CC1 | -4.18
in CC#N | -3.43
in CC(=O)N(C)C | -3.48
in CCC(C)=O | -4
in CCCCCCCCO | -3.86
in CCCCCl | -4.37
in CCCCN(C=O)CCCC | -3.89
in CCN1CCCC1=O | -3.79
in CCN(CC)C(C)=O | -3.85
in CCNC(C)=O | -3.67
in CCNC=O | -3.52
in CN1CCCC1=O | -3.7
in CN1CCCCC1=O | -3.75
in CN(C)C=O | -3.66
in CNC(C)=O | -3.52
in CNC=O | -3.26
in COCCO | -3.48
in CS(C)=O | -3.13
in N#Cc1ccccc1 | -3.95
in NC=O | -1.87
in O | 0.36
in O=CN1CCOCC1 | -3.21
in OCCO | -2
in OCCOCCO | -2.63
in OCCOCCOCCO | -2.73
in c1ccc2c(c1)CCCC2 | -4.28
in c1ccc(C2CCCCC2)cc1 | -4.19
in c1ccccc1 | -4.47

Clc1cc(-c2cc(Cl)c(Cl)c(Cl)c2Cl)cc(Cl)c1Cl
Details | solvation free energy, 298 K [kcal/mol]
in O | -3.17

C=C(C)C1CCC(C)C(=O)C1 (configuration not stated)
Details | solvation free energy, 298 K [kcal/mol]
in O | -3.75

C1=CCCCCC1
Details | solvation free energy, 298 K [kcal/mol]
in CN1CCCC1=O | -4.22
in CN(C)C=O | -4.23
in O | 0.7

CC(C)=CC(C)(C)C
Details | solvation free energy, 298 K [kcal/mol]
in CCC(C)=O | -4.39
in O | 1.84

Cc1nnc(NS(=O)(=O)c2ccc(N)cc2)s1
Details | solvation free energy, 298 K [kcal/mol]
in O | -19.3

Cc1cc(O)ccc1Cl
Details | solvation free energy, 298 K [kcal/mol]
in O | -6.79

Cc1cnccn1
Details | solvation free energy, 298 K [kcal/mol]
in O | -5.51

CCC(C)CCCC(C)CCCC(C)CCCC(C)C (configuration not stated)
Details | solvation free energy, 298 K [kcal/mol]
in O | 4.83

O=c1[nH]c(=O)[nH]c(=O)[nH]1
Details | solvation free energy, 298 K [kcal/mol]
in O | -18.1

CCOc1ccccc1
Details | solvation free energy, 298 K [kcal/mol]
in CCCCCC | -6.02
in O | -2.22

CC(C)C(C)c1ccc(CC(=O)O)cc1 (configuration not stated)
Details | solvation free energy, 298 K [kcal/mol]
in O | -7.99

COC(=O)c1ccccc1
Details | solvation free energy, 298 K [kcal/mol]
in CC(C)CC(C)(C)C | -6.71
in O | -3.91

CC1=CCC23CC1C(C)(C)C2CCC3C (configuration not stated)
Details | solvation free energy, 298 K [kcal/mol]
in O | 0.78

O=O
Details | solvation free energy, 298 K [kcal/mol]
in Brc1ccccc1 | 1.16
in C1CCCCC1 | 0.75
in C1CCOC1 | 0.82
in C1COCCO1 | 1.1
in CC(C)(C)O | 0.78
in CC(C)=O | 0.76
in CC(C)CC(C)(C)C | 0.51
in CC(C)CO | 0.89
in CC(C)O | 0.89
in CCC(C)=O | 0.76
in CCC(C)O | 0.91
in CCCC(C)=O | 0.81
in CCCCC(C)=O | 0.86
in CCCCCC | 0.59
in CCCCCCC | 0.64
in CCCCCCCC | 0.7
in CCCCCCCCC | 0.73
in CCCCCCCCCC | 0.77
in CCCCCCCCCCC | 0.79
in CCCCCCCCCCCC | 0.83
in CCCCCCCCCCCCC | 0.87
in CCCCCCCCCCCCCC | 0.89
in CCCCCCCCCCCCCCC | 0.92
in CCCCCCCCCCCCCCCC | 0.94
in CCCCCCCCCCCO | 1.1
in CCCCCCCCCCO | 1.09
in CCCCCCCCCO | 1.06
in CCCCCCCCO | 1.04
in CCCCCCCO | 1.02
in CCCCCCO | 0.98
in CCCCCO | 0.95
in CCCCO | 0.93
in CCCCOCCCC | 0.78
in CCCO | 0.9
in CCCOCCC | 0.65
in CCO | 0.85
in CCOC(C)=O | 0.9
in CCOCC | 0.48
in CNC=O | 1.12
in CO | 0.82
in COC(C)=O | 0.77
in Cc1ccc(C)cc1 | 0.83
in Cc1cccc(C)c1 | 0.85
in Cc1ccccc1C | 0.88
in ClC(Cl)(Cl)Cl | 0.71
in ClC(Cl)Cl | 0.97
in ClCCCl | 1.09
in ClCCl | 0.9
in Clc1ccccc1 | 1
in Fc1ccccc1 | 0.56
in Ic1ccccc1 | 1.3
in O | 2.06
in O=C1CCCC1 | 1.1
in O=C1CCCCC1 | 1.13
